Experimental data published in publication PMC9032385, “A2A Adenosine Receptor Antagonists: Are Triazolotriazine and Purine Scaffolds Interchangeable?” (Molecules, 2022).
pKi: −log10 of the molar value.

Assays:
[1] = tested on: BV-2 murine microglial cells; assay: NO production (Griess assay) in LPS-activated BV-2 cells; assay type: cell-based; settings: then 100 ng/mL LPS for 24 h
Description: To determine the effects of 13 on LPS-induced inflammatory mediators, we initially evaluated the production of NO. BV-2 cells were treated with different concentrations of 13, then, were exposed to 100 ng/mL LPS for 24 h, and the release of NO in the culture medium was measured by Griess assay (Figure 4B).
Cell Cultures and Treatments: BV-2 murine microglial cells (a gift from Prof. Elisabetta Blasi of the University of Modena and Reggio Emilia, Modena, Italy) were maintained at 37 °C and 5% CO2 in a humidified incubator and grown in DMEM supplemented with 10% (v/v) low-endotoxin fetal bovine serum (Euroclone—Milan, Italy), 2 mM L-glutamine, 50 U/mL penicillin, and 50 μg/mL streptomycin (Sigma-Aldrich–Merck, Milan, Italy). […]
Measurement of NO Production: The amount of nitrite accumulation in the culture medium of BV-2 cells was measured using Griess reagent. […] The NO concentration was evaluated by measuring the absorbance at 540 nm with a 96-well microplate spectrophotometer (VICTOR3 V Multilabel Counter; PerkinElmer). Concentration of nitrites released in the medium was determined from the standard curve generated with known concentrations of sodium nitrite. Results are expressed as mean concentration of nitrites (μM) ± SEM, from three different samples.

human recombinant A3AR = molecular target: T1, human recombinant A3AR (Homo sapiens, UniProt P0DMS8); assay: Radioligand binding at human A3AR ([3H]HEMADO displacement, CHO cell membranes); settings: displacement of [3H]HEMADO, n = 3–5, means ± standard errors
T1 construct: expressed in transfected cells; membrane preparation
T1 sequence (P0DMS8 1-318): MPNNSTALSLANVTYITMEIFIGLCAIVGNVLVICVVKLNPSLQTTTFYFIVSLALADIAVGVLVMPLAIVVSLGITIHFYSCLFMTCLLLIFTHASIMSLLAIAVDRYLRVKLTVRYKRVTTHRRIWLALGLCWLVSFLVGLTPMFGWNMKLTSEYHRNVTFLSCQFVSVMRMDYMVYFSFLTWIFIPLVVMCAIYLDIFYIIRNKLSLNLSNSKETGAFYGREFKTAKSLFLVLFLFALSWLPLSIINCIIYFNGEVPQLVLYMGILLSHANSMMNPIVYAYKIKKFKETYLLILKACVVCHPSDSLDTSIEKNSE
Description: The affinities of the newly synthesized compounds 7–13 and 17–21 were determined in binding studies at human recombinant A1, A2A, and A3 ARs, stably transfected in Chinese hamster ovary (CHO) cells, using [^3H]CCPA (2-chloro-N^6-cyclopentylAdo), [^3H]NECA (5′-N-ethylcarboxamidoAdo), and [^3H]HEMADO (2-hexynyl-N^6-methylAdo) as respective radioligands. Most of the compounds were also evaluated at A2BARs in a functional study using the GloSensor cAMP assay. The results are reported in Table 1 as Ki values in nM (± standard errors). In the case of A2BARs, Ki-values were calculated from IC50-values determined by the inhibition of NECA-stimulated adenylyl cyclase activity.
Cell culture: The Chinese hamster ovary cells (CHO) stably transfected with the desired ARs were grown in DMEM/F12 medium containing 10% FBS (fetal bovine serum), 100 U/mL penicillin, 100 µg/mL streptomycin, 2.5 μg/mL amphotericin B, 1 mM sodium pyruvate, 0.1 mg/mL genetecina (G418), and incubated at 37 °C in a gaseous mixture of 5% CO2: […].
Preparation of membranes: Cell membranes for binding assays were prepared mechanically detaching the cells from the petri and suspending them in a cold hypotonic buffer (5 mM Tris/HCl, 2 mM EDTA, pH 7.4). The cell suspension was homogenized (Ultra-Turrax, 2 × 15 s at maximum speed) and the homogenate centrifuged for 10 min (4 °C) to 1000× g. The supernatant was subsequently centrifuged for 30 min (4 °C) at 100,000× g and the pellet containing the membrane proteins was re-suspended in a specific buffer for each receptor subtype (A1: 50 mM Tris/HCl, pH 7.4; A2A: 50 mM Tris/HCl, 10 mM MgCl2, pH 7.4; A3: 50 mM Tris/HCl, 10 mM MgCl2, 1 mM EDTA, pH 8.25). The amount of the protein suspension was determined according to the […] using the BCA Protein Assay Kit (Pierce), frozen in liquid nitrogen, and stored at −80 °C.
Binding assays: The dissociation constants of the radioligand (KD) were calculated through saturation assays, while the dissociation constants of the compounds under study (Ki) were determined by competition experiments. All binding data were calculated by nonlinear regression curves using the software GraphPad Prism 5 (GraphPad Software, San Diego, CA, USA). The increasing concentrations of the radioligand saturation binding ([^3H]-CCPA for the A1 receptor subtype, [^3H]-NECA for the A2A receptor subtype, and [^3H]-HEMADO for the A3 receptor) subtype were incubated in a total volume of 250 μL containing 0.2 U/mL of Ado deaminase (ADA) and 12 micrograms of membrane proteins in the specific buffer. In competition experiments for the A1 receptor subtype, each compound was added at increasing concentrations, to the well containing 1 nM of [^3H]-CCPA, to a final volume of 200 μL. The samples were left to incubate for 3 h at room temperature, filtered in a filter 96-well plate (UniFilter GF/C, Perkin-Elmer Life and Analytical Science, Boston, MA) using the FilterMate Cell Harvester (Perkin-Elmer), and washed 3 times with cold distilled water. After drying the filter plate at 40 °C for 30′, they 20 μL of scintillating liquid (Microscint-20, Perkin-Elmer) was added to each well, and then the radioactivity was quantized with the MicroBeta2 Plate Counter (Perkin-Elmer). The conditions for binding experiments at A2A and A3 receptor subtypes were essentially the same as for the A1AR using [^3H]-NECA (N-ethylcarboxyamideAdo) at a concentration of 10 nM and [^3H]-HEMADO (2-(1-hexyne)-N^6-methylAdo) at a concentration of 1 nM as radioligands, respectively. The samples were incubated with 12 micrograms of protein for 3 h at room temperature and filtered as described above.
The non-specific binding was determined in the presence of 1 mM theophylline for the A1AR, or 100 µM R-PIA (N^6-(1-methyl-2-phenylethyl)Ado) for the A2A and A3 receptors.

## CCn1c(-c2ccco2)nc2c(N)nc(NCCc3ccc(O)cc3)nc21 [compound 13, 4-(2-((6-Amino-9-ethyl-8-(furan-2-yl)-9H-purin-2-yl)amino)ethyl)phenol]
[1]; 1 nM compound
  NO level in culture medium vs LPS treated cells: significantly reduced the NO level
[1]; 10 nM compound
  NO level in culture medium vs LPS treated cells: significantly reduced the NO level
Human recombinant A3AR
  pKi: 7.92
